The source of these data is patent publication US8367098B2, “Unique combinations of antimicrobial compositions” (The Population Council, Inc., priority 2002, dated 2013).

The subject of one data set is HIV-1. The following applies: p24 ELISA and RT; cited from earlier work. (ELISA stands for enzyme-linked immunosorbent assay.)
Data set [1] in a line: Diffusion of NES through dialysis membrane (HPLC). The data set is classed as physicochemical. The following applies: membrane cutoff 1000, HPLC. An excerpt:
We examined diffusion of NES through a dialysis membrane with a molecular weight cutoff of 1000. The molecular weight of NES is 370. […] Results are illustrated in FIG. 10. […] However, the rate of diffusion observed through the dialysis membrane cannot be related to the rate of diffusion that would be observed in the human vagina as the rate of diffusion was dependant on the surface area of the dialysis bag. Conditions in the vagina would be different.
Diffusion of NES from CARRA/NES was investigated by two different methods, membrane dialysis and Ultrafree-15 centrifugation. In the membrane dialysis experiments, the membrane cutoff is 1,000, and diffusion of NES was measured by HPLC. […] In the Ultrafree-15 centrifugation experiments, a Millipore, Ultrafree-15 centrifugal filter and tube assembly was employed, which allows the passage of molecules of a MW<500 pass through; NES MW is 370.

The conditions of data set [2]: in vivo, po; cited from earlier work.
For data set [3] the following is noted: in vivo; cited from earlier work.

`[Cl-].[Cl-].[Zn+2]` [zinc chloride]: the “effect on HIV-1 production” value in the data set with HIV-1 is on record as “inhibited HIV-1 production”.
Take `[Cl][Hg][Cl]` [mercury chloride]: the “effect on HIV-1 production” value in the data set with HIV-1 is given as “inhibited HIV-1 production”.
With `CC(=O)[O-].CC(=O)[O-].[Cd+2]` [cadmium acetate], in the data set on HIV-1, the “effect on HIV-1 production” value is given as “inhibited HIV-1 production”.
Regarding `C=C1C[C@H]2[C@@H]3CCC4=CC(=O)CC[C@@H]4[C@H]3CC[C@]2(C)[C@@]1(OC(C)=O)C(C)=O` [NES, 16-methylene-17α-acetoxy-19-norpregn-4-ene-3,20-dione], the “diffusion of NES through dialysis membrane” value in data set [1] was “diffused from the dialysis bag at a constant rate”.
For Carrageenan, the “absorption from the gastrointestinal tract” value in data set [2] is “virtually non-existent”. Moreover, the “toxicity by oral, dermal, and inhalation routes” value in data set [3] was “non-toxic”.
